Measurements as given in patent US6204293A, “Inhibitors of protein isoprenyl transferases” (University of Pittsburgh, priority 1998, dated 2001).
Counter-ions that a name gives are not always drawn.

Biological target: T1, Rat brain protein farnesyltransferase (Rattus norvegicus, UniProt Q02293+Q04631)
T1 construct: Rat brain protein farnesyltransferase activity is measured; from tissue; host or cells: rat brain
Assay: % inhibition of farnesylation, scintillation proximity assay with biotin-K Ras B fragment
Type: biochemical
Settings: Table 2; 1 × 10^-6 M
Summary of the method: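 Rat brain enzyme, purified through three steps, in a scintillation proximity assay kit with biotin-K Ras B fragment substrate at 0.1 mM final. Value is % inhibition of farnesylation.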

T1 sequence (Q02293 whole entry, one chain of several): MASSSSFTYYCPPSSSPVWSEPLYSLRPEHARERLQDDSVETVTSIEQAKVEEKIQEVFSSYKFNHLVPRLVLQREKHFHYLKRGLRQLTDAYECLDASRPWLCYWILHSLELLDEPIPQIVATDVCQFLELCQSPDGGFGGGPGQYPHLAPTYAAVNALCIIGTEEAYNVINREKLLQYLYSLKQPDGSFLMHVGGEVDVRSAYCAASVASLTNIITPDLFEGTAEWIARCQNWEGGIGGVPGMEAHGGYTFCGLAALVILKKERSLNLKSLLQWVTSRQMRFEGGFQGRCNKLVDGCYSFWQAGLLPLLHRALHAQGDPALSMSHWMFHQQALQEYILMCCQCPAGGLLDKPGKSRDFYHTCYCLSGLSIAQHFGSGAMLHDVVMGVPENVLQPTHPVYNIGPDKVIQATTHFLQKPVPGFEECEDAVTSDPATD

% inhibition at 1 × 10^-6 M | SMILES
88% | CSCC[C@H](NC(=O)c1ccc(C[C@H]2CC[C@@H](c3ccccc3)CC2)cc1-c1ccccc1C)C(=O)O [Example 790]
89% | CSCC[C@H](NC(=O)c1ccc(/C=C/c2ccc(Oc3ccccc3)nn2)cc1-c1ccccc1C)C(=O)O [Example 810]
95% | CSCC[C@H](NC(=O)c1ccc(CCc2cnc(Oc3ccccc3)cn2)cc1-c1ccccc1C)C(=O)O [Example 813]
90% | CSCC[C@H](NC(=O)c1ccc(CN2CCC[C@H]2COCc2ccccc2)cc1-c1ccccc1C)C(=O)O [Example 824]
80% | CSCC[C@H](NC(=O)c1ccc(CN(Cc2ccoc2)C(C)C)cc1-c1ccccc1C)C(=O)O [Example 832]
55% | CSCC[C@H](NC(=O)c1ccc(CN(Cc2ccccc2)Cc2ccccc2)cc1-c1ccccc1)C(=O)O [Example 834]
92% | CSCC[C@H](NC(=O)c1ccc(CN(Cc2ccccc2)c2ccccc2C(C)=O)cc1-c1ccccc1C)C(=O)O [Example 844]

Further lines, the compound ahead of its results:

SMILES | % inhibition at 1 × 10^-6 M
CSCC[C@H](NC(=O)c1ccc(CN(Cc2ccc(C(F)(F)F)cc2)c2ccccc2)cc1-c1ccccc1C)C(=O)O [Example 782] | 96%
CSCC[C@H](NC(=O)c1ccc(-c2ccccc2-c2ccccc2)cc1-c1ccccc1C)C(=O)[O-].[Li+] [Example 786] | 34%
CSCC[C@H](NC(=O)c1ccc(-c2cccc(-c3ccccc3)c2)cc1-c1ccccc1C)C(=O)[O-].[Li+] [Example 787] | 70%
CSCC[C@H](NC(=O)c1ccc(-c2ccc(-c3ccccc3)cc2)cc1-c1ccccc1C)C(=O)[O-].[Li+] [Example 788] | 44%
CSCC[C@H](NC(=O)c1ccc(/C=C/c2ccccc2)cc1-c1ccccc1C)C(=O)O [Example 791] | 53%
CSCC[C@H](NC(=O)c1ccc(CCc2cccc(-c3ccccc3)c2)cc1-c1ccccc1C)C(=O)[O-].[Li+] [Example 793] | 94%
CCOC(=O)N1CCC(NCc2ccc(C(=O)N[C@@H](CCSC)C(=O)[O-])c(-c3ccccc3C)c2)CC1.[Li+] [Example 806] | 72%
CSCC[C@H](NC(=O)c1ccc(/C=C/c2cnc(Oc3ccccc3)cn2)cc1-c1ccccc1C)C(=O)O [Example 812] | 94%
CSCC[C@H](NC(=O)c1ccc(CN(Cc2ccco2)C(C)C)cc1-c1ccccc1C)C(=O)O [Example 831] | 92%
CSCC[C@H](NC(=O)c1ccc(CN(CCc2ccccc2)C(C)C)cc1-c1ccccc1C)C(=O)O [Example 835] | 96%
CSCC[C@H](NC(=O)c1ccc(CN(Cc2ccccc2)c2ccccc2Cl)cc1-c1ccccc1C)C(=O)O [Example 846] | 85%

Same assay, conditions: Table 3; 1 × 10^-7 M

SMILES | % inhibition at 1 × 10^-7 M
CSCC[C@H](NC(=O)c1ccc(C=Cc2cncs2)cc1-c1ccccc1C)C(=O)[O-].[Li+] [Example 785] | 96%
CSCC[C@H](NC(=O)c1ccc(CCc2ccc(Oc3ccccc3)nn2)cc1-c1ccccc1C)C(=O)O [Example 811] | 85%
COc1ccccc1N(Cc1ccccc1)Cc1ccc(C(=O)N[C@@H](CCSC)C(=O)O)c(-c2ccccc2C)c1 [Example 839] | 63%

Same assay, conditions: Table 4; 1 × 10^-8 M

% inhibition at 1 × 10^-8 M | SMILES
95% | CSCC[C@H](NC(=O)c1ccc(CN(Cc2ccccc2)c2cncnc2)cc1-c1ccccc1C)C(=O)O [Example 836]
92% | CSCC[C@H](NC(=O)c1ccc(CN(Cc2ccc3c(c2)OCO3)c2cnccn2)cc1-c1ccccc1C)C(=O)O [Example 838]
73% | COc1ccc(N(Cc2ccccc2)Cc2ccc(C(=O)N[C@@H](CCSC)C(=O)O)c(-c3ccccc3C)c2)cc1 [Example 840]
85% | CSCC[C@H](NC(=O)c1ccc(CN(Cc2ccccc2)c2cccc(C(C)=O)c2)cc1-c1ccccc1C)C(=O)O [Example 845]
85% | CSCC[C@H](NC(=O)c1ccc(CN(Cc2ccccc2)c2cccc(Cl)c2)cc1-c1ccccc1C)C(=O)O [Example 847]

Continued, compound first:

SMILES | % inhibition at 1 × 10^-8 M
CSCC[C@H](NC(=O)c1ccc(CN(Cc2ccc3c(c2)OCO3)c2cncnc2)cc1-c1ccccc1C)C(=O)O [Example 837] | 91%
CSCC[C@H](NC(=O)c1ccc(CN(Cc2ccccc2)c2cccc([N+](=O)[O-])c2)cc1-c1ccccc1C)C(=O)[O-].[Li+] [Example 842] | 88%
CSCC[C@H](NC(=O)c1ccc(CN(Cc2ccccc2)c2ccc([N+](=O)[O-])cc2)cc1-c1ccccc1C)C(=O)O [Example 843] | 96%

Same assay, conditions: read-out: % inhibition at 1 × 10^-6 M

SMILES | inhibition at 1 µM
CSCC[C@H](NC(=O)c1ccc(COC2CCN(C(=O)OC(C)(C)C)CC2)cc1-c1ccccc1C)C(=O)O [Example 808, N-[4-(1-t-butoxycarbonylpiperidin-4-yloxymethyl)-2-(2-methylphenyl)benzoyl]methionine lithium salt] | 88%
CSCC[C@H](NC(=O)c1ccc(COC2(Cc3ccccc3)CCN(C(=O)OC(C)(C)C)CC2)cc1-c1ccccc1C)C(=O)O [Example 809, N-[4-(1-t-butoxycarbonyl-4-benzylpiperidin-4-yloxymethyl)-2-(2-methylphenyl)benzoyl]methionine lithium salt] | 78%
CSCC[C@H](NC(=O)c1ccc(COC2(c3ccccc3)CCN(C(=O)OC(C)(C)C)CC2)cc1-c1ccccc1C)C(=O)O [Example 816, N-[4-(1-t-butoxycarbonyl-4-phenylpiperidin-4-yloxymethyl)-2-(2-methylphenyl)benzoyl]methionine lithium salt] | 87%

Same assay, conditions: read-out: % inhibition at 1 × 10^-6 M; Table 2; 1 × 10^-6 M

SMILES | inhibition at 1 µM
CSCC[C@H](NC(=O)c1ccc(COC2CCN(Cc3ccccc3)CC2)cc1-c1ccccc1C)C(=O)O [Example 807, N-[4-(1-benzylpiperidin-4-yloxymethyl)-2-(2-methylphenyl)benzoyl]methioninelithium salt] | 90%

Same assay, conditions: read-out: % inhibition at 1 × 10^-7 M

SMILES | inhibition at 0.1 µM
CSCC[C@H](NC(=O)c1ccc(COc2ccc(Oc3ccccc3)cc2)cc1-c1ccccc1C)C(=O)O [Example 795, N-[4-(4-phenoxyphenoxymethyl)-2-(2-methylphenyl)benzoyl]methionine lithium salt] | 87%
CSCC[C@H](NC(=O)c1ccc(COC2CCC(NC(=O)OC(C)(C)C)CC2)cc1-c1ccccc1C)C(=O)O (stereo partly drawn) [Example 817, N-[4-(4-t-butoxycarbonylaminocyclohexyloxymethyl)-2-(2-methylphenyl)benzoyl]methionine lithium salt] | 60%
CCCCC(OCc1ccc(C(=O)N[C@@H](CCSC)C(=O)O)c(-c2ccccc2C)c1)c1ccco1 (stereo partly drawn) [Example 825, N-[4-(1-furan-2-ylpentyloxymethyl)-2-(2-methylphenyl)benzoyl]methionine lithium salt] | 79%

Same assay, conditions: read-out: % inhibition at 1 × 10^-7 M; Table 3; 1 × 10^-7 M

SMILES | inhibition at 0.1 µM
CSCC[C@H](NC(=O)c1ccc(COCc2ccc(-c3ccc(Cl)cc3)o2)cc1-c1ccccc1C)C(=O)NS(C)(=O)=O [Example 818, N-[4-(5-(4-chlorophenyl)furan-2-ylmethoxymethyl)-2-(2-methylphenyl)benzoyl]methionine methanesulfonimide] | 78%
CSCC[C@H](NC(=O)c1ccc(COCC2CCC(c3ccc(Cl)cc3)O2)cc1-c1ccccc1C)C(=O)O (stereo partly drawn) [Example 822, N-[4-(5-syn(4chlorophenyl)tetrahydrofuran-2-ylmethoxymethyl)-2-(2-methylphenyl)benzoyl]methionine lithium salt] | 93%

Same assay, conditions: read-out: % inhibition at 1 × 10^-8 M

SMILES | inhibition at 0.01 µM
CSCC[C@H](NC(=O)c1ccc(COCc2ccc(-c3ccc(C(C)C)cc3)o2)cc1-c1ccccc1C)C(=O)O [Example 820, N-[4-(5-(4-isopropylphenyl)furan-2-ylmethoxymethyl)-2-(2-methylphenyl)benzoyl]methionine lithium salt] | 66%
CCCCC(OCc1ccc(C(=O)N[C@@H](CCSC)C(=O)O)c(-c2ccccc2C)c1)c1ccc(-c2ccc(Cl)cc2)o1 (stereo partly drawn) [Example 826, N-[4-(1-(5-(4-chlorophenyl)furan-2-yl)pentyloxymethyl)-2-(2-methylphenyl)benzoyl]methionine lithium salt] | 92%
CSCC[C@H](NC(=O)c1ccc(COCc2occc2-c2ccc(Cl)cc2)cc1-c1ccccc1C)C(=O)O [Example 827, N-[4-(3-(4-chlorophenyl)furan-2-ylmethoxymethyl)-2-(2-methylphenyl)benzoyl]methionine lithium salt] | 77%
CSCC[C@H](NC(=O)c1ccc(COC(Cc2ccccc2)c2cncs2)cc1-c1ccccc1C)C(=O)O (stereo partly drawn) [Example 828, N-[4-(1-thiazol-5-yl-2-phenylethoxymethyl)-2-(2-methylphenyl)benzoyl]methionine lithium salt] | 87%
CSCC[C@H](NC(=O)c1ccc(COCc2oc(-c3ccc(Cl)cc3)c(Cl)c2Cl)cc1-c1ccccc1C)C(=O)O [Example 829, N-[4-(3,4-dichloro-5-(4-chlorophenyl)furan-2-ylmethoxymethyl)-2-(2-methylphenyl)benzoyl]methionine lithium salt] | 92%

Same assay, conditions: read-out: % inhibition at 1 × 10^-8 M; Table 4; 1 × 10^-8 M

SMILES | inhibition at 0.01 µM
CSCC[C@H](NC(=O)c1ccc(COCc2ccc(-c3ccc(Cl)cc3)o2)cc1-c1ccccc1C)C(=O)NS(=O)(=O)c1ccccc1 [Example 819, N-[4-(5-(4-chlorophenyl)furan-2-ylmethoxymethyl)-2-(2-methylphenyl)benzoyl]methionine benzenesulfonimide] | 76%
CSCC[C@H](NC(=O)c1ccc(COCc2ccc(-c3ccc(N(C)C)cc3)o2)cc1-c1ccccc1C)C(=O)O [Example 821, N-[4-(5-(4-N,N-dimethylaminophenyl)furan-2-ylmethoxymethyl)-2-(2-methylphenyl)benzoyl]methionine lithium salt] | 75%
